According to patent US20260265244A1, “HETEROCYCLIC COMPOUNDS AS STING ANTAGONISTS” (Boehringer Ingelheim International GmbH, priority 2022, published 2026):

These molecules were tested on STING inhibition in human whole blood (IFNα2α production) (assay: Human whole blood assay (HWBA): cGAMP-stimulated IFNα2α production). Conditions: not given.
Assay type: cell-based
Method in brief: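 Na-citrate human whole blood from ≥3 healthy donors, preincubated 60 min at room temperature with compound (8 concentrations, top 10 μM, ~1:5 steps, 0.1% DMSO), then stimulated with cGAMP and incubated 22 h at 37 °C. Plasma IFNα2α measured by MSD immunoassay; % control versus stimulated/unstimulated wells, IC50 by 4-parameter logistic fit.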

| IC50 | SMILES |
| --- | --- |
| 450 nM | COC(C)c1nc2nn(C)cc2cc1-n1nc(-c2cccc3nn(C[C@H](O)c4ccccc4)cc23)c(C(C)C)c1C (stereo partly shown) [Example 75] |

Same assay, conditions: Homo sapiens

| IC50 | SMILES |
| --- | --- |
| 640 nM | CNc1nc2nn(C)cc2cc1-n1nc(-c2cccc3nn(C[C@H](O)c4ccccc4)cc23)c(C(C)C)c1C [Example 84, (1R)-2-(4-{5-methyl-1-[2-methyl-6-(methylamino)-2H-pyrazolo[3,4-b]pyridin-5-yl]-4-(propan-2-yl)-1H-pyrazol-3-yl}-2H-indazol-2-yl)-1-phenylethan-1-ol] |
| 660 nM | COCCO[C@@H](Cn1cc2c(-c3nn(-c4cc5cn(C)nc5nc4C)c(C)c3C(C)C)cccc2n1)c1ccccc1 [Example 85, 4-(1-{2,6-dimethyl-2H-pyrazolo[3,4-b]pyridin-5-yl}-5-methyl-4-(propan-2-yl)-1H-pyrazol-3-yl)-2-[(2R)-2-(2-methoxyethoxy)-2-phenylethyl]-2H-indazole] |
| 1600 nM | Cn1cc([C@@H](O)Cn2cc3c(-c4nc(-c5cc6cn(C)nc6nc5C5CC5)n(C)c4C4CC4)cccc3n2)cn1 [Example 91, (1R)-2-[4-(5-cyclopropyl-2-{6-cyclopropyl-2-methyl-2H-pyrazolo[3,4-b]pyridin-5-yl}-1-methyl-1H-imidazol-4-yl)-2H-indazol-2-yl]-1-(1-methyl-1H-pyrazol-4-yl)ethan-1-ol] |
| 520 nM | Cc1c(C(C)C)c(-c2cccc3nn(C[C@H](O)c4ccccc4)cc23)nn1-c1ccn2c(C(F)F)nnc2c1C1CC1 [Example 76] |
| 2500 nM | Cc1nc2nn(C)cc2cc1-n1nc(-c2cccc3nn(C[C@H](O)c4ccccc4)cc23)c(C(C)CO)c1C (stereo partly drawn) [Example 95, 2-(1-{2,6-dimethyl-2H-pyrazolo[3,4-b]pyridin-5-yl}-3-{2-[(2R)-2-hydroxy-2-phenylethyl]-2H-indazol-4-yl}-5-methyl-1H-pyrazol-4-yl)propan-1-ol] |
| 930 nM | Cc1nc2nn(C)cc2cc1-n1nc(-c2cccc3nn(CC(O)c4ccc(Br)cc4)cc23)c(C(C)C)c1C (stereo not shown) [Example 88, 1-(4-Bromophenyl)-2-[4-(1-{2,6-dimethyl-2H-pyrazolo[3,4-b]pyridin-5-yl}-5-methyl-4-(propan-2-yl)-1H-pyrazol-3-yl)-2H-indazol-2-yl]ethan-1-ol] |
| 560 nM | Cc1nc2nn(C)cc2cc1-n1nc(-c2cccc3nn(C[C@H](OCCF)c4ccccc4)cc23)c(C(C)C)c1C [Example 78, 4-(1-{2,6-dimethyl-2H-pyrazolo[3,4-b]pyridin-5-yl}-5-methyl-4-(propan-2-yl)-1H-pyrazol-3-yl)-2-[(2R)-2-(2-fluoroethoxy)-2-phenylethyl]-2H-indazole] |
| 610 nM | CCCO[C@@H](Cn1cc2c(-c3nn(-c4cc5cn(C)nc5nc4C)c(C)c3C(C)C)cccc2n1)c1ccccc1 [Example 81, 4-(1-{2,6-dimethyl-2H-pyrazolo[3,4-b]pyridin-5-yl}-5-methyl-4-(propan-2-yl)-1H-pyrazol-3-yl)-2-[(2R)-2-phenyl-2-propoxyethyl]-2H-indazole] |
| 610 nM | Cc1cc([C@@H](O)Cn2cc3c(-c4nn(-c5cc6cn(C)nc6nc5C)c(C)c4C(C)C)cccc3n2)ccn1 [Example 82, (1R)-2-[4-(1-{2,6-dimethyl-2H-pyrazolo[3,4-b]pyridin-5-yl}-5-methyl-4-(propan-2-yl)-1H-pyrazol-3-yl)-2H-indazol-2-yl]-1-(2-methylpyridin-4-yl)ethan-1-ol] |
| 1000 nM | Cc1c(C(C)C)c(-c2cccc3nn(C[C@H](O)c4ccccc4)cc23)nn1-c1cc2cn(C)nc2nc1C(C)(C)O [Example 89, 2-[5-(3-{2-[(2R)-2-hydroxy-2-phenylethyl]-2H-indazol-4-yl}-5-methyl-4-(propan-2-yl)-1H-pyrazol-1-yl)-2-methyl-2H-pyrazolo[3,4-b]pyridin-6-yl]propan-2-ol] |
| 580 nM | Cc1c(C(C)C)c(-c2cccc3nn(C[C@H](O)c4ccccc4)cc23)nn1-c1cc2cn(C)nc2nc1C1(C)CC1 [Example 80, (1R)-2-(4-{5-methyl-1-[2-methyl-6-(1-methylcyclopropyl)-2H-pyrazolo[3,4-b]pyridin-5-yl]-4-(propan-2-yl)-1H-pyrazol-3-yl}-2H-indazol-2-yl)-1-phenylethan-1-ol] |
| 2400 nM | CCc1c(-c2cccc3nn(C[C@H](O)c4ccccc4)cc23)nn(-c2cc3cn(C)nc3nc2C)c1CC [Example 93, (1R)-2-[4-(1-{2,6-dimethyl-2H-pyrazolo[3,4-b]pyridin-5-yl}-4,5-diethyl-1H-pyrazol-3-yl)-2H-indazol-2-yl]-1-phenylethan-1-ol] |
| 580 nM | C=CCO[C@@H](Cn1cc2c(-c3nn(-c4cc5cn(C)nc5nc4C)c(C)c3C(C)C)cccc2n1)c1ccccc1 [Example 79, 4-(1-{2,6-dimethyl-2H-pyrazolo[3,4-b]pyridin-5-yl}-5-methyl-4-(propan-2-yl)-1H-pyrazol-3-yl)-2-[(2R)-2-phenyl-2-(prop-2-en-1-yloxy)ethyl]-2H-indazole] |
| 2000 nM | Cc1nc2nn(C)cc2cc1-n1nc(-c2cccc3nn(C[C@H](O)c4ccccc4)cc23)c(C2(C)CC2)c1C [Example 92, (1R)-2-[4-(1-{2,6-Dimethyl-2H-pyrazolo[3,4-b]pyridin-5-yl}-5-methyl-4-(1-methylcyclopropyl)-1H-pyrazol-3-yl)-2H-indazol-2-yl]-1-phenylethan-1-ol] |
| 2400 nM | Cc1c(-n2nc(-c3cccc4nn(C[C@H](O)c5ccccc5)cc34)c(C(C)C)c2C)ccn2c(C)cnc12 [Example 94, (1R)-2-[4-(1-{3,8-dimethylimidazo[1,2-a]pyridin-7-yl}-5-methyl-4-(propan-2-yl)-1H-pyrazol-3-yl)-2H-indazol-2-yl]-1-phenylethan-1-ol] |
| 58 nM | [2H][C@](O)(Cn1cc2c(-c3nn(-c4cc5cn(C)nc5nc4C)c(C)c3C(C)C)cccc2n1)c1ccccc1 [Example 3, (1R)-2-[4-(1-{2,6-dimethyl-2H-pyrazolo[3,4-b]pyridin-5-yl}-5-methyl-4-(propan-2-yl)-1H-pyrazol-3-yl)-2H-indazol-2-yl]-1-phenyl(1-^2H)ethan-1-ol] |
| 630 nM | Cc1nc2nn(C)cc2cc1-n1nc(-c2cccc3nn(CC(O)C4CCCCC4)cc23)c(C(C)C)c1C (stereo not shown) [Example 83, 1-cyclohexyl-2-[4-(1-{2,6-dimethyl-2H-pyrazolo[3,4-b]pyridin-5-yl}-5-methyl-4-(propan-2-yl)-1H-pyrazol-3-yl)-2H-indazol-2-yl]ethan-1-ol] |
| 1100 nM | Cn1cc2cc(-c3nc(-c4cccc5nn(C[C@H](O)c6ccc(OCC#N)cc6)cc45)c(C4CC4)n3C)c(C3CC3)nc2n1 [Example 90, 2-{4-[(1R)-2-[4-(5-cyclopropyl-2-{6-cyclopropyl-2-methyl-2H-pyrazolo[3,4-b]pyridin-5-yl}-1-methyl-1H-imidazol-4-yl)-2H-indazol-2-yl]-1-hydroxyethyl]phenoxy} acetonitrile] |
| 450 nM | Cc1nc2nn(C)cc2cc1-n1nc(-c2cccc3nn(C[C@H](OCCC(C)(C)O)c4ccccc4)cc23)c(C(C)C)c1C [Example 74, 4-[(1R)-2-[4-(1-{2,6-dimethyl-2H-pyrazolo[3,4-b]pyridin-5-yl}-5-methyl-4-(propan-2-yl)-1H-pyrazol-3-yl)-2H-indazol-2-yl]-1-phenylethoxy]-2-methylbutan-2-ol] |
| 850 nM | Cc1c(C(C)C)c(-c2cccc3nn(C[C@H](O)c4ccccc4)cc23)nn1-c1cc2cn(C)nc2nc1N(C)C [Example 87, (1R)-2-(4-{1-[6-(dimethylamino)-2-methyl-2H-pyrazolo[3,4-b]pyridin-5-yl]-5-methyl-4-(propan-2-yl)-1H-pyrazol-3-yl}-2H-indazol-2-yl)-1-phenylethan-1-ol] |
| 690 nM | Cc1c(-n2nc(-c3cccc4nn(C[C@H](O)c5ccccc5)cc34)c(C(C)C)c2C)ccn2c(C)nnc12 [Example 86, (1R)-2-[4-(1-{3,8-dimethyl-[1,2,4]triazolo[4,3-a]pyridin-7-yl}-5-methyl-4-(propan-2-yl)-1H-pyrazol-3-yl)-2H-indazol-2-yl]-1-phenylethan-1-ol] |
